Laboratory results reported in patent publication US12404279B2, “Deubiquitinase inhibitors and methods of use thereof” (Molecure S.A., priority 2021, dated 2025).
Where a name gives a salt, the structure may show the parent alone.

Target: full-length USP7 (Homo sapiens (Human), UniProt Q93009)
Experiment: Enzymatic assay to determine IC50 of USP7 inhibitors (Ubiquitin-Rhodamine 110 cleavage)
Format: biochemical
Conditions: 0.5 nM USP7, 0.5 μM Ubiquitin-Rhodamine 110, 45 min at 37° C.
Protocol: For the inhibitors disclosed herein, their potency was measured using the following method.
A 45 μl reaction volume containing full-length USP7 (0.5 nM) in 50 mM HEPES pH 7.5, 150 mM NaCl, 1 mM DTT, 1 mg/ml BSA and 0.05% Tween20 was assembled in wells of 96 well half area black flat bottom plates. Test compounds were first dissolved to 25 mM stocks in DMSO and subsequently introduced to enzyme 15 min after USP7 incubation with DTT at room temperature. The enzymatic reaction was started by adding 0.5 μM Ubiquitin-Rhodamine 110 (final concentration) and allowed to proceed for 45 min at 37° C., 250 RPM shaking before Rhodamine fluorescence (485 nm excitation/520 nm emission) was measured using Tecan Spark M10 plate reader.

Sequence of full-length USP7 (Q93009 whole entry): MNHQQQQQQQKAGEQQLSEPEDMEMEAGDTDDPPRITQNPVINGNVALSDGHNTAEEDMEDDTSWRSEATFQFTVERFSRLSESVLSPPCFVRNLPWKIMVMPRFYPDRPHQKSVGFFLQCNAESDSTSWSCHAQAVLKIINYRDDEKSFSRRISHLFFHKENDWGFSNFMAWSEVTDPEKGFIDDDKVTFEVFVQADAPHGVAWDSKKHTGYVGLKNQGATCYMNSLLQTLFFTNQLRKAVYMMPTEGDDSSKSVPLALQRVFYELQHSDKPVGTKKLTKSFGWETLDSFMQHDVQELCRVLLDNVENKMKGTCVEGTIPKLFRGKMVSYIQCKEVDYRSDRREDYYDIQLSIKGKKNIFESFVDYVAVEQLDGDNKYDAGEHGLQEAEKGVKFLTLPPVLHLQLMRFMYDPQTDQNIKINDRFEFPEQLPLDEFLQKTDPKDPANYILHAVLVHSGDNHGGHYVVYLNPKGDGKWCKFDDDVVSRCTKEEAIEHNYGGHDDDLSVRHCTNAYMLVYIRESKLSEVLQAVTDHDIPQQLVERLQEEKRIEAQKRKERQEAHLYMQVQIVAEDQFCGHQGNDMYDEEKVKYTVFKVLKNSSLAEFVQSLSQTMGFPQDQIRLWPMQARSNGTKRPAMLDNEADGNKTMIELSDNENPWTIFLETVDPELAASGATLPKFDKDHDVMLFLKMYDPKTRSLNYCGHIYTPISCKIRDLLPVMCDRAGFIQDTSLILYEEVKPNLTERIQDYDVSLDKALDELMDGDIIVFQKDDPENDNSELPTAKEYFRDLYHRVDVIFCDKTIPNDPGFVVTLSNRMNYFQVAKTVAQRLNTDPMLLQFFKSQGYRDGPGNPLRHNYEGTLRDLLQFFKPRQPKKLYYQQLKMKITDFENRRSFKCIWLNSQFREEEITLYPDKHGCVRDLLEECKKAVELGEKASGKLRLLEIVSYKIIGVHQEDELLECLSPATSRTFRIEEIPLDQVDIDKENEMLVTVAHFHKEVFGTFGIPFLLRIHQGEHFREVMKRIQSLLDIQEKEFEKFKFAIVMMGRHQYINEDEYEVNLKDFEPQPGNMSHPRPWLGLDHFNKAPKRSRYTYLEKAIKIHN

SMILES	IC50 [nM]
Cc1nc(C(F)(F)F)cc(-c2ccnc3cc(CN4C(=O)C5C(C4=O)C5(C)C)sc23)c1O[C@H]1CCNC1 (stereo partly drawn) [Example 22]	500 to 1000
Cc1nc(C(F)(F)F)cc(-c2ccnc3cc(CN4C(=O)C5C(C4=O)C5(C)C)sc23)c1O[C@H]1CCCNC1 (stereo partly drawn) [Example 23, 6,6-dimethyl-3-((7-(2-methyl-3-(((S)-piperidin-3-yl)oxy)-6-(trifluoromethyl)pyridin-4-yl)thieno[3,2-b]pyridin-2-yl)methyl)-3-azabicyclo[3.1.0]hexane-2,4-dione 2,2,2-trifluoroacetate]	< 500
Cc1cc(Cl)cc(-c2ccnc3sccc23)c1O[C@H]1CCCNC1 [Example 31, (S)-4-(5-chloro-3-methyl-2-(piperidin-3-yloxy)phenyl)thieno[2,3-b]pyridine 2,2,2-trifluoroacetate]	1000 to 10000

Other lines, results leading:

IC50 [nM]	SMILES
< 500	Cc1nc(C#N)cc(-c2ccnc3cc(CN4C(=O)C5C(C4=O)C5(C)C)sc23)c1C(=O)N1CC[C@H](N)C1 (stereo partly drawn) [Example 15, 5-((S)-3-aminopyrrolidine-1-carbonyl)-4-(2-((6,6-dimethyl-2,4-dioxo-3-azabicyclo[3.1.0]hexan-3-yl)methyl)thieno[3,2-b]pyridin-7-yl)-6-methylpicolinonitrile 2,2,2-trifluoroacetate]
500 to 1000	Cc1nc(C#N)cc(-c2ccnc3cc(CN4C(=O)C5C(C4=O)C5(C)C)sc23)c1C(=O)N1CCNCC1 (stereo not drawn) [Example 17, 4-(2-((6,6-dimethyl-2,4-dioxo-3-azabicyclo[3.1.0]hexan-3-yl)methyl)thieno[3,2-b]pyridin-7-yl)-6-methyl-5-(piperazine-1-carbonyl)picolinonitrile hydrochloride]
< 500	Cc1cc(C(F)(F)F)nc(-c2ccnc3cc(CN4C(=O)C5C(C4=O)C5(C)C)sc23)c1NC1CCNC1 (stereo not drawn) [Example 18, 6,6-dimethyl-3-((7-(4-methyl-3-(pyrrolidin-3-ylamino)-6-(trifluoromethyl)pyridin-2-yl)thieno[3,2-b]pyridin-2-yl)methyl)-3-azabicyclo[3.1.0]hexane-2,4-dione 2,2,2-trifluoroacetate]
500 to 1000	Cc1nc(C#N)cc(-c2ccnc3cc(CN4C(=O)C5C(C4=O)C5(C)C)sc23)c1C(=O)N1CC(F)(F)C1 (stereo not drawn) [Example 19, 5-(3,3-difluoroazetidine-1-carbonyl)-4-(2-((6,6-dimethyl-2,4-dioxo-3-azabicyclo[3.1.0]hexan-3-yl)methyl)thieno[3,2-b]pyridin-7-yl)-6-methylpicolinonitrile 2,2,2-trifluoroacetate]
< 500	Cc1cc(C#N)nc(-c2ccnc3cc(CN4C(=O)C5C(C4=O)C5(C)C)sc23)c1NC1CCNC1 (stereo not drawn) [Example 20, 6-(2-((6,6-dimethyl-2,4-dioxo-3-azabicyclo[3.1.0]hexan-3-yl)methyl)thieno[3,2-b]pyridin-7-yl)-4-methyl-5-(pyrrolidin-3-ylamino)picolinonitrile dihydrochloride]
< 500	Cc1cc(C#N)nc(-c2ccnc3cc(CN4C(=O)C5C(C4=O)C5(C)C)sc23)c1NC1CNC1 (stereo not drawn) [Example 24, 5-(azetidin-3-ylamino)-6-(2-((6,6-dimethyl-2,4-dioxo-3-azabicyclo[3.1.0]hexan-3-yl)methyl)thieno[3,2-b]pyridin-7-yl)-4-methylpicolinonitrile 2,2,2-trifluoroacetate]
< 500	Cc1nc(C#N)cc(-c2ccnc3cc(CN4C(=O)C5C(C4=O)C5(C)C)sc23)c1NC1CCNC1 (stereo not drawn) [Example 26, 4-(2-((6,6-dimethyl-2,4-dioxo-3-azabicyclo[3.1.0]hexan-3-yl)methyl)thieno[3,2-b]pyridin-7-yl)-6-methyl-5-(pyrrolidin-3-ylamino)picolinonitrile 2,2,2-trifluoroacetate]
< 500	Cc1nc(Cl)cc(-c2ccnc3cc(CN4C(=O)C5C(C4=O)C5(C)C)sc23)c1NC(=O)C1CNC1 (stereo not drawn) [Example 29, N-(6-chloro-4-(2-((6,6-dimethyl-2,4-dioxo-3-azabicyclo[3.1.0]hexan-3-yl)methyl)thieno[3,2-b]pyridin-7-yl)-2-methylpyridin-3-yl)azetidine-3-carboxamide 2,2,2-trifluoroacetate]
< 500	Cc1nc(C#N)cc(-c2ccnc3cc(CN4C(=O)C5C(C4=O)C5(C)C)sc23)c1NC(=O)C1CNC1 (stereo not drawn) [Example 30, N-(6-cyano-4-(2-((6,6-dimethyl-2,4-dioxo-3-azabicyclo[3.1.0]hexan-3-yl)methyl)thieno[3,2-b]pyridin-7-yl)-2-methylpyridin-3-yl)azetidine-3-carboxamide 2,2,2-trifluoroacetate]
< 500	Cc1cc(Cl)cc(-c2ccnc3cc(CN4C(=O)C5C(C4=O)C5(C)C)sc23)c1NC(=O)[C@H]1CCNC1 (stereo partly drawn) [Example 34, (3S)—N-(4-chloro-2-(2-((6,6-dimethyl-2,4-dioxo-3-azabicyclo[3.1.0]hexan-3-yl)methyl)thieno[3,2-b]pyridin-7-yl)-6-methylphenyl)pyrrolidine-3-carboxamide 2,2,2-trifluoroacetate]

Same assay, conditions: at 1 μM of the test compound; given where IC50 not determined yet; read-out: percent value of inhibition of USP7 activity

inhibition at 1 µM [%]	SMILES
20 to 49	Cc1nc(C#N)cc(-c2ccnc3cc(CN4C(=O)C5C(C4=O)C5(C)C)sc23)c1C(=O)NC1CNC1 (stereo not drawn) [Example 16, N-(azetidin-3-yl)-6-cyano-4-(2-((6,6-dimethyl-2,4-dioxo-3-azabicyclo[3.1.0]hexan-3-yl)methyl)thieno[3,2-b]pyridin-7-yl)-2-methylnicotinamide hydrochloride]
< 20	Cc1cc(C(F)(F)F)nc(-c2ccnc3cc(CN4C(=O)C5C(C4=O)C5(C)C)sc23)c1Cn1cncn1 (stereo not drawn) [Example 36, 3-((7-(3-((1H-1,2,4-triazol-1-yl)methyl)-4-methyl-6-(trifluoromethyl)pyridin-2-yl)thieno[3,2-b]pyridin-2-yl)methyl)-6,6-dimethyl-3-azabicyclo[3.1.0]hexane-2,4-dione hydrochloride]
< 20	Cc1cc(C(F)(F)F)nc(-c2ccnc3cc(CN4C(=O)C5C(C4=O)C5(C)C)sc23)c1CC1NC(=O)CNC1=O (stereo not drawn) [Example 37, 3-((7-(3-((3,6-dioxopiperazin-2-yl)methyl)-4-methyl-6-(trifluoromethyl)pyridin-2-yl)thieno[3,2-b]pyridin-2-yl)methyl)-6,6-dimethyl-3-azabicyclo[3.1.0]hexane-2,4-dione hydrochloride]
< 20	Cc1cc(C(F)(F)F)nc(-c2ccnc3cc(CN4C(=O)C5C(C4=O)C5(C)C)sc23)c1CN1CCOCC1=O (stereo not drawn) [Example 38, 6,6-dimethyl-3-((7-(4-methyl-3-((3-oxomorpholino)methyl)-6-(trifluoromethyl)pyridin-2-yl)thieno[3,2-b]pyridin-2-yl)methyl)-3-azabicyclo[3.1.0]hexane-2,4-dione hydrochloride]
20 to 49	Cc1cc(C(F)(F)F)nc(-c2ccnc3cc(CN4C(=O)C5C(C4=O)C5(C)C)sc23)c1CN1CCCC1=O (stereo not drawn) [Example 39, 6,6-dimethyl-3-((7-(4-methyl-3-((2-oxopyrrolidin-1-yl)methyl)-6-(trifluoromethyl)pyridin-2-yl)thieno[3,2-b]pyridin-2-yl)methyl)-3-azabicyclo[3.1.0]hexane-2,4-dione dihydrochloride]
20 to 49	Cc1cc(C(F)(F)F)nc(-c2ccnc3cc(CN4C(=O)C5C(C4=O)C5(C)C)sc23)c1CN1CCNCC1=O (stereo not drawn) [Example 40, 6,6-dimethyl-3-((7-(4-methyl-3-((2-oxopiperazin-1-yl)methyl)-6-(trifluoromethyl)pyridin-2-yl)thieno[3,2-b]pyridin-2-yl)methyl)-3-azabicyclo[3.1.0]hexane-2,4-dione dihydrochloride]
< 20	Cc1cc(C(F)(F)F)nc(-c2ccnc3cc(CN4C(=O)C5C(C4=O)C5(C)C)sc23)c1CN1CCN(C)CC1=O (stereo not drawn) [Example 41, 6,6-dimethyl-3-((7-(4-methyl-3-((4-methyl-2-oxopiperazin-1-yl)methyl)-6-(trifluoromethyl)pyridin-2-yl)thieno[3,2-b]pyridin-2-yl)methyl)-3-azabicyclo[3.1.0]hexane-2,4-dione dihydrochloride]
< 20	Cc1cc(C#N)nc(-c2ccnc3cc(CN4C(=O)C5C(C4=O)C5(C)C)sc23)c1C(=O)N(C)CCN(C)C (stereo not drawn) [Example 42, 6-cyano-2-(2-((6,6-dimethyl-2,4-dioxo-3-azabicyclo[3.1.0]hexan-3-yl)methyl)thieno[3,2-b]pyridin-7-yl)-N-(2-(dimethylamino)ethyl)-N,4-dimethylnicotinamide]

Same assay, conditions: read-out: percent value of inhibition of USP7 activity

SMILES	inhibition at 1 µM [%]
Cc1nc(C#N)cc(-c2ccnc3cc(CN4C(=O)C5C(C4=O)C5(C)C)sc23)c1NC(=O)C1CCN1 (stereo not drawn) [Example 27, N-(6-cyano-4-(2-((6,6-dimethyl-2,4-dioxo-3-azabicyclo[3.1.0]hexan-3-yl)methyl)thieno[3,2-b]pyridin-7-yl)-2-methylpyridin-3-yl)azetidine-2-carboxamide 2,2,2-trifluoroacetate]	< 20
Cc1nc(C(F)(F)F)cc(-c2ccnc3cc(CN4C(=O)C5C(C4=O)C5(C)C)sc23)c1NC(=O)CN1CC(F)(F)C1 (stereo not drawn) [Example 32, 2-(3,3-difluoroazetidin-1-yl)-N-(4-(2-((6,6-dimethyl-2,4-dioxo-3-azabicyclo[3.1.0]hexan-3-yl)methyl)thieno[3,2-b]pyridin-7-yl)-2-methyl-6-(trifluoromethyl)pyridin-3-yl)acetamide 2,2,2-trifluoroacetate]	< 20
CCc1nc(C(F)(F)F)cc(-c2ccnc3cc(CN4C(=O)C5C(C4=O)C5(C)C)sc23)c1NC(=O)C1CCNCC1 (stereo not drawn) [Example 33, N-(4-(2-((6,6-dimethyl-2,4-dioxo-3-azabicyclo[3.1.0]hexan-3-yl)methyl)thieno[3,2-b]pyridin-7-yl)-2-ethyl-6-(trifluoromethyl)pyridin-3-yl)piperidine-4-carboxamide 2,2,2-trifluoroacetate]	< 20
